Experimental data published in patent US20150329558A1, “FUSED HETEROCYCLIC COMPOUNDS AS ION CHANNEL MODULATORS” (Gilead Sciences, Inc., priority 2011, published 2015).

Key:
Human Nav1.2 = molecular target: T1, Human Nav1.2 (Homo sapiens, UniProt Q99250); assay: Nav1.2 use-dependent block, whole-cell voltage clamp; assay type: cell-based; details: use-dependent block 10 Hz, read-out: NAv1.2*-CHAN TEST-UDB-10 HZ-
T1 construct: expressed in transfected cells
Description: Wild-type (WT) cDNA stably transfected in Chinese hamster ovary (CHO) cells is used to record INa. Unless otherwise noted, all reagents are purchased from Sigma-Aldrich (St Louis, Mo., U.S.A.).
Whole-cell voltage-clamp recordings are used to measure the biophysical properties of WT. Briefly, the pipette solution consists of (in mM) 110 CsF, 10 NaF, 20 CsCl, 2 EGTA, 10 HEPES, with a pH of 7.35 and osmolarity of 300 mOsmol/kg. The bath (control) solution contains in (mM): 145 NaCl, 4 KCl, 1.8 CaCl2, 1 MgCl2, 10 dextrose, 10 HEPES, with a pH of 7.35 and osmolarity of 310 mOsmol/kg. Cells are allowed to stabilize for 10 min after establishment of the whole-cell configuration before current is measured. Series resistance is compensated 90% to assure that the command potential is reached within microseconds with a voltage error <2 mV. Leak currents are subtracted by using an online P/4 procedure and all currents are low-pass Bessel filtered at 5 kHz and digitized at 50 kHz.
Tonic block of peak current is measured using a step to −10 mV (20 ms) from a holding potential of −120 mV (0.2 Hz). Use-dependent block of peak current is measured during pulse number 300 of a pulse train (−10 mV, 5 ms, 300 pulses, 10 Hz or 25 Hz) from a holding potential of −120 mV. Two sequential pulse train stimulations are averaged to obtain mean current traces for each recording condition, which are then used for offline subtraction and analysis.
For use-dependent studies, cells are stimulated with depolarizing pulse trains (−10 mV, 5 ms, 300 pulses, 10 and 25 Hz) from a holding potential of −120 mV. Currents are then normalized to the peak current recorded in response to the first pulse in each frequency train. For tonic block studies, peak current is evaluated in response to a 20 ms depolarization to −10 mV (0.2 Hz). Data analysis is performed using Clampfit 9.2 (Axon Instruments, Union City, Calif., U.S.A), Excel 2002 (Microsoft, Seattle, Wash., U.S.A.), and OriginPro 7.0 (OriginLab, Northampton, Mass., U.S.A) software. Results are presented as mean±SEM.
A stock solution of 10 mM compound of Formula I is prepared in 0.1 M HCl or DMSO. A fresh dilution of the compound of Formula I in the bath solution is prepared every experimental day and the pH is readjusted to 7.35 as necessary. The final DMSO concentration was kept at 0.1% in all solutions. Direct application of the perfusion solution to the clamped cell is achieved using the Perfusion Pencil system (Automate, Berkeley, Calif.). Direct cell perfusion is driven by gravity at a flow rate of 350 μL/min using a 250 micron tip. This system sequesters the clamped cell within a perfusion stream and enables complete solution exchange within 1 second. The clamped cell is perfused continuously starting immediately after establishing the whole-cell configuration. Control currents are measured during control solution perfusion.
Solutions are perfused for three minutes prior to current recordings to allow equilibrium (tonic) drug block. Tonic block of peak currents is measured from this steady-state condition. Three sequential current traces are averaged to obtain a mean current for each recording. The mean current traces are utilized for offline analysis. Use-dependent block of peak current is measured during pulse number 300 of the pulse train, (−10 mV, 5 ms, 300 pulses, 10 Hz) from a holding potential of −120 mV. Two sequential pulse train stimulations are averaged to obtain mean current traces for each recording condition, which are then used for offline subtraction and analysis. Where appropriate, concentration inhibition curves are fit with the Hill equation: I/Imax=1/[1+10̂(log IC50−I)*k], where IC50 is the concentration that produces half inhibition and k is the Hill slope factor.

anesthetized rabbits = assay: Ischemia-induced ST segment elevation in anesthetized rabbits; assay type: in vivo; details: rabbit; for area under curve (AUC) for the ST segment height reduced (vs. control): 15 min LAD ischemia, iv bolus
Procedure: This study was undertaken to determine the anti-ischemic effects of compounds of the present invention in an in vivo rabbit model.
Female New Zealand rabbits (3.0-4.0 kg) were purchased from Western Oregon Rabbitry. Animals were housed on a 12-h light and dark cycle and received standard laboratory chow and water. All experiments were performed in accordance with the Guide for the Care and Use of Laboratory Animals published by The National Research Council and with the experimental protocol approved by the Institutional Animal Care Committee of Gilead Sciences, Inc.
Rabbits were anesthetized with ketamine (35 mg/kg) and xylazine (5 mg/kg) intramuscular injection (im). A tracheotomy was performed and the trachea was intubated with an endotracheal tube. The animal was ventilated with room air supplemented with oxygen using a pressure control animal ventilator (Kent Scientific Corp., Torrington, Conn.) at a respiratory rate of 40 strokes/min and peak inspiration pressure of 10 mmH2O, which was adjusted to keep blood gases and pH within the physiological range (iSTAT clinic analyzer, Heska Corp.; Waukesha, Wis.). The left femoral artery was cannulated for the measurement of blood pressure (BP). Blood samples were also withdrawn from femoral artery. The right external jugular vein was cannulated for drug/vehicle administration. Needle electrodes were inserted subcutaneously into the limbs for recording of the surface electrocardiogram (ECG). The heart was exposed via an incision in the 4th intercostal space (4th and/or 5th ribs were cut for a clear surgical vision). The chest was opened and a pericardial cradle was formed using 4 retractors. A coronary artery occluder, comprised of a snare made of 5 cm PE-10 tubing with a 6-0 Prolene polypropylene suture in it, was placed loosely around the left anterior descending artery (LAD) at its origin. Two unipolar electrodes, made with teflon coated silver wire attached to a small patch of filter paper, were attached on the surface of the ischemic and normal regions of the left ventricle to record epicardial electrocardiogram. Reference electrodes were placed in the open incision of the neck. The body temperature of the animal was monitored via a rectal thermometer and maintained at 37-40° C. by adjusting the surface temperature of the surgical table. Regional ischemia (15 min) was induced by ligating the LAD followed by 15 min of reperfusion caused by releasing the ligation. The heart was excised at the end of the experiment and the LAD was re-ligated. The ischemic area was visualized by perfusing the heart with 1% Evans blue in saline and calculated as a percentage of total ventricular weight. Rabbits with ischemic area less than 10% or larger than 25% were excluded from the analysis. […]

hNav1.1 = molecular target: T2, hNav1.1 (Homo sapiens, UniProt P35498); assay: Nav1.1 use-dependent block, whole-cell voltage clamp; assay type: cell-based; details: use-dependent block 10 Hz, read-out: NAv1.1*-CHAN TEST-UDB-10 HZ-
T2 construct: expressed in transfected cells; host or cells: HEK293, transient transfection (α1:β1:β2 = 10:1:1)

T1 sequence (Q99250 whole entry): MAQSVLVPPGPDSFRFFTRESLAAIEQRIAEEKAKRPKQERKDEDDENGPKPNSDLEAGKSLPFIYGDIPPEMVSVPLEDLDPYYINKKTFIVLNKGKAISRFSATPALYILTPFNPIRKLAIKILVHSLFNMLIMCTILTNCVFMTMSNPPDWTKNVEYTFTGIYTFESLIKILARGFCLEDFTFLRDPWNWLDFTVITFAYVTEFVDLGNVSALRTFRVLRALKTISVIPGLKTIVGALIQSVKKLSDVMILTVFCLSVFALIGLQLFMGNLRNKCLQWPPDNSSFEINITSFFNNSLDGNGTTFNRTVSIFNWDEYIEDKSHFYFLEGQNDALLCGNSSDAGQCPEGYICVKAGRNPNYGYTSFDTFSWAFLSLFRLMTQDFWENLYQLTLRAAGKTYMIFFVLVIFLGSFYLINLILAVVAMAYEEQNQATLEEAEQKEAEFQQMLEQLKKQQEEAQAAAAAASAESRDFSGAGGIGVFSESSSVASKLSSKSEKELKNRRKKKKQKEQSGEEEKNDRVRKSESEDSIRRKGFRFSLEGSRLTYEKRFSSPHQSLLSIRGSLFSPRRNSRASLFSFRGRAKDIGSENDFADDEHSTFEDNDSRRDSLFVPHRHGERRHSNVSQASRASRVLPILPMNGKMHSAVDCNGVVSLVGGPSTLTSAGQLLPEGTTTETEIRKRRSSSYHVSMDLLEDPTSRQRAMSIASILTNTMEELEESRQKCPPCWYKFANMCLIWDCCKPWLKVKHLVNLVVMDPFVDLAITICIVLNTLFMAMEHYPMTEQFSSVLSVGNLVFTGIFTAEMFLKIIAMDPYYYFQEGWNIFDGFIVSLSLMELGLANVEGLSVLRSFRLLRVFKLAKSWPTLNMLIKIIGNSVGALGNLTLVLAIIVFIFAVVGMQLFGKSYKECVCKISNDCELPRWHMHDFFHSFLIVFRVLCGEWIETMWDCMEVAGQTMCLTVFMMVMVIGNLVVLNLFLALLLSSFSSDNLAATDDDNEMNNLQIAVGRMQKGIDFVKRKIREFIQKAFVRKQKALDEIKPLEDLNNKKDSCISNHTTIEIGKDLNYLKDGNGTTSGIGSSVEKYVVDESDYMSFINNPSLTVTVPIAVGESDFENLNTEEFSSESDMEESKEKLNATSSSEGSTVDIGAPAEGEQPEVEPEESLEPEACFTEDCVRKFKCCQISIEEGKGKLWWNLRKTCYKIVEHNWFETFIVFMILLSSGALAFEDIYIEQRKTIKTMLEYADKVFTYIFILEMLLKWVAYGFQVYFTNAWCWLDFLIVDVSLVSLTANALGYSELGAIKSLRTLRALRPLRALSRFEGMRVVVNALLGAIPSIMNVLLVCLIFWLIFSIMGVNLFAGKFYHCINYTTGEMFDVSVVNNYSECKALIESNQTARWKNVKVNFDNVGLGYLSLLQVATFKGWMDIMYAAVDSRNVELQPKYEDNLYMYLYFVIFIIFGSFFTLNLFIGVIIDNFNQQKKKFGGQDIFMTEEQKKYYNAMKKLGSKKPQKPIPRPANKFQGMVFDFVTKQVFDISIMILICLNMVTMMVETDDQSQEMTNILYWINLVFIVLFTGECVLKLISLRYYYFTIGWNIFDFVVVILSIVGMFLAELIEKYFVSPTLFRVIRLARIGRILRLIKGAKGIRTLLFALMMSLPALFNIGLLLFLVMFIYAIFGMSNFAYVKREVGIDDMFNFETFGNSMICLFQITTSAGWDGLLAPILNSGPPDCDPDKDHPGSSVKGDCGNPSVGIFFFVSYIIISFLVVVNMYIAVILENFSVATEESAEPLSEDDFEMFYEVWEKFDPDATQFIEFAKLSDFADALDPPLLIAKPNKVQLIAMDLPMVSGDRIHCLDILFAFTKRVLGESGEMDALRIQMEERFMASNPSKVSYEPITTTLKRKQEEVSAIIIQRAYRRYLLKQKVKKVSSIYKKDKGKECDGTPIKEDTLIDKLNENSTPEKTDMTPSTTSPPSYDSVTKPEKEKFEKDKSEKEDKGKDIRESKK

SMILES: O=c1c2cc(-c3ccc(OC(F)(F)F)cc3)ccc2nnn1Cc1noc(C2CC2)n1 [II-14, 3-((5-cyclopropyl-1,2,4-oxadiazol-3-yl)methyl)-6-(4-(trifluoromethoxy)phenyl)benzo[d][1,2,3]triazin-4(3H)-one]
- inhibition at 1 µM (Human Nav1.2): -0.7%
- area under curve (AUC) for the ST segment height reduced (vs. control) (anesthetized rabbits; 0.3 μM plasma concentration): 19%
- area under curve (AUC) for the ST segment height reduced (vs. control) (anesthetized rabbits; 0.7 μM plasma concentration): 75%
- effect on blood pressure (BP), heart rate (HR) and ECG intervals prior to the ischemia (anesthetized rabbits; at the plasma concentration levels studied): no significant effect
- ischemia-induced ST elevation (anesthetized rabbits; iv bolus 0.1, 0.2 and 0.4 mg/kg): dose-dependently prevented the ischemia-induced ST elevation
- inhibition at 1 µM (hNav1.1): 19.5%
